Results as given in ChEMBL document CHEMBL1146654, “3-(7-Azaindolyl)-4-arylmaleimides as potent, selective inhibitors of glycogen synthase kinase-3” (Bioorg Med Chem Lett, 2004).

Tests used:
[1] = target: Mitogen-activated protein kinase 9 (Homo sapiens) (UniProt P45984); test: Inhibition of c-Jun N-terminal kinase 2-alpha 2; design: scale not given: the % may be the effect or the level left
[2] = target: Tyrosine-protein kinase SYK (Homo sapiens) (UniProt P43405); test: Inhibition of Syk protein tyrosine kinase; design: scale not given: the % may be the effect or the level left
[3] = target: Ribosomal protein S6 kinase alpha-1 (Rattus norvegicus) (UniProt Q63531); test: Inhibition of Ribosomal S6 kinase 1; design: scale not given: the % may be the effect or the level left
[4] = target: T1, Dual specificity mitogen-activated protein kinase kinase 7 (Homo sapiens) (UniProt O14733); test: Inhibition of Mitogen activated protein kinase kinase 7 beta; design: scale not given: the % may be the effect or the level left
T1 sequence (whole entry): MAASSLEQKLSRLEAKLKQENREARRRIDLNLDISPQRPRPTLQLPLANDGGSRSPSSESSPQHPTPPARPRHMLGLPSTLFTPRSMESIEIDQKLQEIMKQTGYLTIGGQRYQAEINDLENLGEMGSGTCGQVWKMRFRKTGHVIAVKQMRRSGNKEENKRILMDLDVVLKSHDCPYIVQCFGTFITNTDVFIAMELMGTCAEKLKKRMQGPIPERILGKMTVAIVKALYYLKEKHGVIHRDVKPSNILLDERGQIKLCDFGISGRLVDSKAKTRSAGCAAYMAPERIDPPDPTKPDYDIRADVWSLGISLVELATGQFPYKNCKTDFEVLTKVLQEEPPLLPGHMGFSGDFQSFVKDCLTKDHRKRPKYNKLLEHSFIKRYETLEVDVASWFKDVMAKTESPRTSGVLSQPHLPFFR

[5] = target: Cyclin-dependent kinase 2/cyclin A (Homo sapiens) (UniProt P24941+P20248+P78396); test: Inhibition of Cyclin-dependent kinase 2-cyclin A; assay type: protein-complex assay; design: scale not given: the % may be the effect or the level left
[6] = target: Insulin-like growth factor 1 receptor (Homo sapiens) (UniProt P08069); test: Inhibition of insulin-like growth factor I receptor; design: scale not given: the % may be the effect or the level left
Sequence of Insulin-like growth factor 1 receptor (Homo sapiens) (P08069 31-736 limits assumed): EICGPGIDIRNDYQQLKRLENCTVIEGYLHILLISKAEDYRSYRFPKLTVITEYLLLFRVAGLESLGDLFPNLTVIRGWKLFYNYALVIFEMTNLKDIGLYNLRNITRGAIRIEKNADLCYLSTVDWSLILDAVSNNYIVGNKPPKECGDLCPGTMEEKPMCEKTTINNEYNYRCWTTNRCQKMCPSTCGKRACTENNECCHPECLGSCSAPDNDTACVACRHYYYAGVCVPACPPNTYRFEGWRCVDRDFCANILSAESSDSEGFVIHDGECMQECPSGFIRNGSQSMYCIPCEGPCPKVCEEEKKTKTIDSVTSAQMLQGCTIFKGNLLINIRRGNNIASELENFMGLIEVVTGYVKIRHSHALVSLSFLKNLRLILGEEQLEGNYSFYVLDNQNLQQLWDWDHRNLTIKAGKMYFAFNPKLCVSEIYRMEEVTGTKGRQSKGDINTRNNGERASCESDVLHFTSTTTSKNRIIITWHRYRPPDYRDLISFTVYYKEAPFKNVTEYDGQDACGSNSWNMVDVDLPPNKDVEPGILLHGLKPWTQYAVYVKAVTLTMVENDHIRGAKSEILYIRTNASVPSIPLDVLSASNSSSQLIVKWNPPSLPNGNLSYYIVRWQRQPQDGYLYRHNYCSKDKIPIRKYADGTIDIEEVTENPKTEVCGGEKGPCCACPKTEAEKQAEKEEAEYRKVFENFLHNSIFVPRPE
Sequence of Insulin-like growth factor 1 receptor (Homo sapiens) (P08069 741-1367 limits assumed): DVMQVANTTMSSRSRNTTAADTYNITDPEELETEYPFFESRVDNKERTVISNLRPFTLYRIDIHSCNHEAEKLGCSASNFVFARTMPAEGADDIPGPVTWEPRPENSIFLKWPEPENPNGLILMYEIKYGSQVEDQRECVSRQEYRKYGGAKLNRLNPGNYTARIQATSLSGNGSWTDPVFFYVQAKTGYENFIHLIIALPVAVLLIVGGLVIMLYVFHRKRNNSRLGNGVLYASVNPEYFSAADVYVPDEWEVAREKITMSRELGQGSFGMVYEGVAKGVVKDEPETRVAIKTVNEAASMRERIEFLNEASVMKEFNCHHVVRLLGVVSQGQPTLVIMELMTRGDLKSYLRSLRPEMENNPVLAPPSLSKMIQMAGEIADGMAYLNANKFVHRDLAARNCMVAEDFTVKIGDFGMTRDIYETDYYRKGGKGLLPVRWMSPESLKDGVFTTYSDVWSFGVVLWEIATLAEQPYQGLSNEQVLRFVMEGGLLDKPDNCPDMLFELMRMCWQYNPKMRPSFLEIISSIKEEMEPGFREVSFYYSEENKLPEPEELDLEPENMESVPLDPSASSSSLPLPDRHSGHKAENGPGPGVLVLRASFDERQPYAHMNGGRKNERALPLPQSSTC

[7] = target: Dual specificity mitogen-activated protein kinase kinase 1 (Homo sapiens) (UniProt Q02750); test: Inhibition of mitogen activated protein kinase kinase 1; design: scale not given: the % may be the effect or the level left
Sequence of Dual specificity mitogen-activated protein kinase kinase 1 (Homo sapiens) (Q02750 whole entry): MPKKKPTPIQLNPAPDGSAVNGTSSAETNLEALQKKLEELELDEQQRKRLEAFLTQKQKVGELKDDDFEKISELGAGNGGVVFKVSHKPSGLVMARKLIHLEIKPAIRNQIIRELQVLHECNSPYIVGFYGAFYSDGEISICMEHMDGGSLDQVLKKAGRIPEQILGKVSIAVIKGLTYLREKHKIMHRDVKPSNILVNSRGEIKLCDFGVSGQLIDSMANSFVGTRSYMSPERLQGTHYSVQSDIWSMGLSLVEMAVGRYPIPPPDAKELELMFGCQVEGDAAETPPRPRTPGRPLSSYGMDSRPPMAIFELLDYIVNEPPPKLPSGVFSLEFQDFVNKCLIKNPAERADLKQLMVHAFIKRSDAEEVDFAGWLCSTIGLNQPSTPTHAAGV

[8] = target: Protein kinase C gamma type (Homo sapiens, UniProt P05129); test: Inhibitory activity of 10 uM compound against protein kinase C-gamma using histone as substrate
[9] = target: Protein kinase C theta type (Homo sapiens) (UniProt Q04759); test: Inhibition of PKCtheta; design: scale not given: the % may be the effect or the level left
[10] = target: Cyclin-dependent kinase 7/ cyclin H (Homo sapiens) (UniProt P51946+P50613); test: Inhibition of Cyclin-dependent kinase 7-cyclin H; assay type: protein-complex assay; design: scale not given: the % may be the effect or the level left
[11] = target: RAF proto-oncogene serine/threonine-protein kinase (Homo sapiens) (UniProt P04049); test: Inhibition of RAF proto-oncogene serine/threonine-protein kinase; design: scale not given: the % may be the effect or the level left
Rattus norvegicus = species: Rattus norvegicus; test: Inhibition of AMP-activated Protein Kinase; design: scale not given: the % may be the effect or the level left
[12] = target: Fibroblast growth factor receptor 3 (Homo sapiens) (UniProt P22607); test: Inhibition of Fibroblast growth factor receptor 3; design: scale not given: the % may be the effect or the level left
Sequence of Fibroblast growth factor receptor 3 (Homo sapiens) (P22607 23-806 limits assumed): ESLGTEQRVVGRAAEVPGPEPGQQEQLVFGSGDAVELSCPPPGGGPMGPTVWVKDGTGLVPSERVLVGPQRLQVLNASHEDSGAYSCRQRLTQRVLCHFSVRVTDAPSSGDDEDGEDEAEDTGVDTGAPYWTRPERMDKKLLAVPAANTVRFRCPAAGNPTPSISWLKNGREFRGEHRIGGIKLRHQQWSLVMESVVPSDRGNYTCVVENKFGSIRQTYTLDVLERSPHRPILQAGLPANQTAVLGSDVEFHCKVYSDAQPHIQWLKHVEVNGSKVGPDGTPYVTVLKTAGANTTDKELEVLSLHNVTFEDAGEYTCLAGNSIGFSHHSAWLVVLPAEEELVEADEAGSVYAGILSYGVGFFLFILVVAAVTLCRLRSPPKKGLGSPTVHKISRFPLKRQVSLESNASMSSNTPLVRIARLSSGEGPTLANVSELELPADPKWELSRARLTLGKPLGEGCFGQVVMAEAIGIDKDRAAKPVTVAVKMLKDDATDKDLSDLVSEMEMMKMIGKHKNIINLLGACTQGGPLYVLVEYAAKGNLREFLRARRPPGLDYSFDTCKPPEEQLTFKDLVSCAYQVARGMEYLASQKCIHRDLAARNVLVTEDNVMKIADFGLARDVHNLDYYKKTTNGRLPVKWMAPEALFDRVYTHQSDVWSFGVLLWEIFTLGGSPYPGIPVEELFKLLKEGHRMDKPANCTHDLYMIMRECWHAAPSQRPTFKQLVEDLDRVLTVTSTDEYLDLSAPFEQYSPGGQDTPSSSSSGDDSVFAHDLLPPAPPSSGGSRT

[13] = target: Rho-associated protein kinase 2 (Homo sapiens) (UniProt O75116); test: (§1) Inhibition of ROCK-II; design: scale not given: the % may be the effect or the level left
[14] = target: Rho-associated protein kinase 2 (Rattus norvegicus) (UniProt Q62868); test: as §1; design: scale not given: the % may be the effect or the level left
Sequence of Rho-associated protein kinase 2 (Rattus norvegicus) (Q62868 whole entry, looked up): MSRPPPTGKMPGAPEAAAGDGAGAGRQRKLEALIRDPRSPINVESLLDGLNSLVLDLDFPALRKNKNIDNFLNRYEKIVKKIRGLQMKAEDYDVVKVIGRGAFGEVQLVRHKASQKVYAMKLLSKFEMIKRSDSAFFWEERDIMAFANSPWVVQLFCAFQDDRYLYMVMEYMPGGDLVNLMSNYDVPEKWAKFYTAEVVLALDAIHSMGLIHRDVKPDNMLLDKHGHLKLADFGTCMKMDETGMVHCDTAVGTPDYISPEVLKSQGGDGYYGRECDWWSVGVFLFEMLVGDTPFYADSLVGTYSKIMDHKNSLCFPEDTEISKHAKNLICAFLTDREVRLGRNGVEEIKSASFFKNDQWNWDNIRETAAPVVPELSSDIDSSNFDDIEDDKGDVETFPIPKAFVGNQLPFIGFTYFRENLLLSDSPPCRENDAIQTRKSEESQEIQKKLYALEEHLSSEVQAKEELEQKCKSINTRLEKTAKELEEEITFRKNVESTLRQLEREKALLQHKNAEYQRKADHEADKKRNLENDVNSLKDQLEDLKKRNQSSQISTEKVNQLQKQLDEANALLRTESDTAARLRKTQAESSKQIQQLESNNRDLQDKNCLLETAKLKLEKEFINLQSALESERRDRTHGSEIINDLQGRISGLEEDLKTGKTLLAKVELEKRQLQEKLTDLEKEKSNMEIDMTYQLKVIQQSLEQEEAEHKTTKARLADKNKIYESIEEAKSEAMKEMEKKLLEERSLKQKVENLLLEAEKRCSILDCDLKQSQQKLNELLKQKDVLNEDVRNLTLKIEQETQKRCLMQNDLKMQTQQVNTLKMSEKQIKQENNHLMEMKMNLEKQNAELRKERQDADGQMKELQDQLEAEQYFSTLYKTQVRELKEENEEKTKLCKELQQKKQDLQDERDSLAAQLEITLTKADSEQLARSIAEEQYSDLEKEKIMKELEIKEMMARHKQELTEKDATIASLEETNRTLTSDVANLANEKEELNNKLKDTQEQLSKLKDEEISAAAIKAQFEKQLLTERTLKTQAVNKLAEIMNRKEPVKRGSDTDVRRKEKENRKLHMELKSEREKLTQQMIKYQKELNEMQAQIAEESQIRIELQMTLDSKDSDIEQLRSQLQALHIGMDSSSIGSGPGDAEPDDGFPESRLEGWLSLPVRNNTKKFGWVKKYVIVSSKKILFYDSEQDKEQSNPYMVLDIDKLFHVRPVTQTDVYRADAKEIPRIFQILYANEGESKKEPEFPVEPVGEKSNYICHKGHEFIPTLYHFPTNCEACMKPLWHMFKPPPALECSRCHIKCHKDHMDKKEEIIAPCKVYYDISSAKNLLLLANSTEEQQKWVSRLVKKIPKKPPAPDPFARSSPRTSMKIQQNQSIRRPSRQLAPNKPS

[15] = target: Ribosomal protein S6 kinase alpha-3 (Homo sapiens, UniProt P51812); test: Inhibition of Ribosomal S6 kinase 3; design: scale not given: the % may be the effect or the level left
[16] = target: Tyrosine-protein kinase Lck (Homo sapiens) (UniProt P06239); test: Inhibition of p56 Lck tyrosine kinase; design: scale not given: the % may be the effect or the level left
Sequence of Tyrosine-protein kinase Lck (Homo sapiens) (P06239 2-509 limits assumed): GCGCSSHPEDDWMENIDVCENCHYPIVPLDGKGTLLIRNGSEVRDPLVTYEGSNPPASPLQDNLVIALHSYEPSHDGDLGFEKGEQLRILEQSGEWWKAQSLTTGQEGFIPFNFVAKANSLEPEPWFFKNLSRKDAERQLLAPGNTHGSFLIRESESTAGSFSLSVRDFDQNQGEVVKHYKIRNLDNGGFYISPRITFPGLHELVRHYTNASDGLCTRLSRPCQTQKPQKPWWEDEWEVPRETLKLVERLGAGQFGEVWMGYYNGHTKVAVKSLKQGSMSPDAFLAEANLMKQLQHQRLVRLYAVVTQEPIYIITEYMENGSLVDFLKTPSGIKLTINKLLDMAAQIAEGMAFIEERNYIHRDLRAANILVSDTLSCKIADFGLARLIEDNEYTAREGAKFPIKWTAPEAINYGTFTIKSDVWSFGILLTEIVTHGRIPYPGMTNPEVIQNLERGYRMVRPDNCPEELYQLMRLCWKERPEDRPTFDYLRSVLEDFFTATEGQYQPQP

[17] = target: T2, Protein kinase C epsilon type (Homo sapiens) (UniProt Q02156); test: Inhibition of PKCepsilon; design: scale not given: the % may be the effect or the level left
T2 sequence (whole entry): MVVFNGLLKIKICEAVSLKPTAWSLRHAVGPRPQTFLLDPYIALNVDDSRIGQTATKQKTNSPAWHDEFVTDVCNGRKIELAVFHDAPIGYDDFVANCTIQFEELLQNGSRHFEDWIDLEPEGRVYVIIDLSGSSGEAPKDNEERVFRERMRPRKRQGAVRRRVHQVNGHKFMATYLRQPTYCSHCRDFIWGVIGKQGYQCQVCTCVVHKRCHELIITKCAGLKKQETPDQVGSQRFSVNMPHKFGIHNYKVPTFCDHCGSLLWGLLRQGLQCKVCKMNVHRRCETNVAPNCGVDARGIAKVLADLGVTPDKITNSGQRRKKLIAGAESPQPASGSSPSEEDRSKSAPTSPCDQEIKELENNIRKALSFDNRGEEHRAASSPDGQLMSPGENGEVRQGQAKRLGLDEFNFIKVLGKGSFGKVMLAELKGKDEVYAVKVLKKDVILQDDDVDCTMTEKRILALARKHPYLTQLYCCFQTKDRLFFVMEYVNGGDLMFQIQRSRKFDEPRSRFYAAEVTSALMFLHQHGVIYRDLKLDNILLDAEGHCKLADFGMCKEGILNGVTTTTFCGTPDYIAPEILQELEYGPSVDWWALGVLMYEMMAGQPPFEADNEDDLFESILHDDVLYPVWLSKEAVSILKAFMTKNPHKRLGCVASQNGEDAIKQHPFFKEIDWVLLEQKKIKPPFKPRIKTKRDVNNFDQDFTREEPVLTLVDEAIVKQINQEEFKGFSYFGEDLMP

[18] = target: T3, Mitogen-activated protein kinase 13 (Homo sapiens) (UniProt O15264); test: Inhibition of Stress activated protein kinase 4; design: scale not given: the % may be the effect or the level left
T3 sequence (whole entry): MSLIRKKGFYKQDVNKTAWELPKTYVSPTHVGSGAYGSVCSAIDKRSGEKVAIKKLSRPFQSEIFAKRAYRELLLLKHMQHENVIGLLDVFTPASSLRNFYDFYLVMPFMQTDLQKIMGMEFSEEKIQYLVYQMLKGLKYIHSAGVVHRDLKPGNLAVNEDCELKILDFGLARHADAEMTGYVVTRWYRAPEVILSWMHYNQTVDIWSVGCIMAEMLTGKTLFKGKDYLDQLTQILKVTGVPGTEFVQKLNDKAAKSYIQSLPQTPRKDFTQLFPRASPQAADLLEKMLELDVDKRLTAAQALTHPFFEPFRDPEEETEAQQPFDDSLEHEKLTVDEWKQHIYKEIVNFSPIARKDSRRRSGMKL

[19] = target: Platelet-derived growth factor receptor alpha (Homo sapiens) (UniProt P16234); test: Inhibition of PDGFRalpha; design: scale not given: the % may be the effect or the level left
[20] = target: Protein kinase C alpha type (Homo sapiens, UniProt P17252); test: Inhibitory activity of 10 uM compound against protein kinase C-alpha using histone as substrate
[21] = target: Glycogen synthase kinase-3 beta (Homo sapiens, UniProt P49841); test: Inhibition of glycogen synthase kinase-3 beta; design: scale not given: the % may be the effect or the level left
[22] = target: Ribosomal protein S6 kinase (P70S6K) (Homo sapiens) (UniProt Q9UBS0+P23443); test: Inhibition of p70 Ribosomal protein S6 kinase; assay type: protein-complex assay; design: scale not given: the % may be the effect or the level left
[23] = target: Tyrosine-protein kinase Yes (Homo sapiens) (UniProt P07947); test: Inhibition of Yes tyrosine kinase; design: scale not given: the % may be the effect or the level left

Sequence of Mitogen-activated protein kinase 9 (Homo sapiens) (P45984 whole entry, looked up): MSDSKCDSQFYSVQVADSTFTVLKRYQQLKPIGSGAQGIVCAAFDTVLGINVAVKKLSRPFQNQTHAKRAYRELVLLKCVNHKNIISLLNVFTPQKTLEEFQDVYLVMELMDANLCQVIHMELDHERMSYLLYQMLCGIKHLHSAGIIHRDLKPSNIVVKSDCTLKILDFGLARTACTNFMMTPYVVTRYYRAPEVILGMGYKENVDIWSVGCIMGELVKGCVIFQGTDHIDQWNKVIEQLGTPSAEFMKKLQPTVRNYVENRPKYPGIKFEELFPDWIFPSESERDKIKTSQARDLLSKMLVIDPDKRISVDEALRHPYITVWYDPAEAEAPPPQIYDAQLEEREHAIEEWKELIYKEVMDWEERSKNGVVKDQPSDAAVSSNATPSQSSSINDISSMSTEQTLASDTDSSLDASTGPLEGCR

Activity [1] [%] | Activity [2] [%] | Activity [3] [%] | Activity [4] [%] | Activity [5] [%] | Activity [6] [%] | Activity [7] [%] | inhibition [8] [%] | Activity [9] [%] | Activity [10] [%] | Activity [11] [%] | Activity (Rattus norvegicus) [%] | Activity [12] [%] | Activity [13] [%] | Activity [14] [%] | Activity [15] [%] | Activity [16] [%] | Activity [17] [%] | Activity [18] [%] | Activity [19] [%] | Structure (SMILES) | further results
63 | 86 | 48 | 71 | 9 | 80 | 94 | < 50 | 46 | 47 | 74 | 68 | 79 | 100 | 94 | 33 | 84 | 49 | 97 | 99 | COCCCn1cc(C2=C(c3ccccc3O)C(=O)NC2=O)c2cccnc21 | inhibition [20]: < 50%; Activity [21]: 1%; Activity [22]: 87%; Activity [23]: 89%
93 | 76 | 66 | 68 | 25 | 78 | 74 | < 50 | 66 | 59 | 74 | 74 | 64 | 90 | 97 | 60 | 82 | 67 | 86 | 86 | O=C1NC(=O)C(c2cn(CCCO)c3ncccc23)=C1c1ncc(C(F)(F)F)cc1Cl | inhibition [20]: < 50%; Activity [21]: 3%; Activity [22]: 88%; Activity [23]: 93%
84 | 88 | 38 | 101 | 2 | 86 | 100 | < 50 | 71 | 60 | 92 | 64 | 83 | 78 | 91 | 24 | 67 | 54 | 100 | 108 | COc1ccccc1C1=C(c2cn(CCCNC(=O)OC(C)(C)C)c3ncccc23)C(=O)NC1=O | inhibition [20]: < 50%; Activity [21]: 0%; Activity [22]: 82%; Activity [23]: 42%
